Measurements from PMC10960833, “1,2,3-triazole and chiral Schiff base hybrids as potential anticancer agents: DFT, molecular docking and ADME studies” (Scientific Reports, 2024).

Columns and labels:
[1] = AlamarBlue cytotoxicity assay, MRC5 normal cells; assay type: cell-based; details: human, MRC5 healthy lung cells, 24 h treatment, mean ± SD of three independent experiments
Description: (§1) PC3, A375, and MRC5 cell lines were purchased from ATCC and were cultured in Dulbecco’s Modified Eagle Media (DMEM) supplemented with 10% Fetal Bovine Serum (FBS) (Highveld biological), 1% gentamycin and 1% penicillin/streptomycin (Sigma, USA). Cells were maintained at 37 °C under 5% of carbon dioxide (CO2) and 95% relative humidity.
(§2) The growth inhibitory effect and cytotoxicity of the compounds were tested in triplicate against two cancer cell lines (PC3 and A375) and one healthy cell line (MRC5), respectively using Alamar Blue assay.
(§3) PC3, A375, and MRC5 cell lines were cultured in 96 well tissue culture plates. […] Cells were treated for 24 h. 10 µl of AlamarBlue (Thermo Fisher Scientific) was added to each well at 22 h after treatment and incubated for 2 h at 37 °C in the dark since AlamarBlue is light sensitive. Cell viability was measured using AlamarBlue and readings were obtained in terms of fluorescent values using a microplate reader (BioTek Synergy HT). Samples were exposed to an excitation wavelength of 530 nm and at the emission wavelength of 590 nm. Cell viability percentage was calculated using the formula below: Cellviability=absorbanceoftreatedcells-absorbanceofblank/absorbanceofuntreatedcells-absorbanceofblank×100%

[2] = test system: PC3 (prostate) cancer cell lines; assay: AlamarBlue cytotoxicity assay, PC3; assay type: cell-based; details: for IC50: Homo sapiens, PC-3; for Selectivity index (SI) PC3: ratio IC50 MRC5 / IC50 PC3
Description: (§4) PC3, A375, and MRC5 cell lines were purchased from ATCC and were cultured in Dulbecco’s Modified Eagle Media (DMEM) supplemented with 10% Fetal Bovine Serum (FBS) (Highveld biological), 1% gentamycin and 1% penicillin/streptomycin (Sigma, USA).
as §2
as §3, with “10 µl of AlamarBlue (Thermo Fisher Scientific) was added to each well at 22 h after treatment and incubated for 2 h at 37 °C in the dark since AlamarBlue is light sensitive.” left out

[3] = test system: A375 (skin) cancer cell lines; assay: AlamarBlue cytotoxicity assay, A375; assay type: cell-based; details: for Cytotoxicity (IC50) A375 / IC50: A375 cells, 24 h treatment, AlamarBlue, mean ± SD of three independent experiments; for IC50 / viability at 5 µg/mL / viability at 15 µg/mL / viability at 25 µg/mL / viability at 50 µg/mL / viability at 75 µg/mL / viability at 100 µg/mL: Homo sapiens; for IC50: A-375, 24 h; for viability at 5 µg/mL / viability at 15 µg/mL / viability at 25 µg/mL / viability at 50 µg/mL / viability at 75 µg/mL / viability at 100 µg/mL: A-375; for Selectivity index (SI) A375: ratio IC50 MRC5 / IC50 A375
Description: as §4, §2
as §3, with “10 µl of AlamarBlue (Thermo Fisher Scientific) was added to each well at 22 h after treatment and incubated for 2 h at 37 °C in the dark since AlamarBlue is light sensitive.” left out

[4] = test system: MRC5 (healthy lung) cell lines; assay: AlamarBlue cytotoxicity assay, MRC5 normal cells; assay type: cell-based; details: 24 h treatment, mean ± SD of three independent experiments
Description: as §1, §2, §3

[5] = PC3 cells, 24 h treatment, AlamarBlue, mean ± SD of three independent experiments

| SMILES | melting point | IC50 at 24 h [1] | IC50 [2, 5] | Activity for the proliferation of the PC3 cancer cell lines (in words) [2] | viability at 5 µg/mL ([2]; PC3, 5 µg/mL) | viability at 15 µg/mL ([2]; PC3, 15 µg/mL) | viability at 25 µg/mL ([2]; PC3, 25 µg/mL) | viability at 50 µg/mL ([2]; PC3, 50 µg/mL) | viability at 75 µg/mL ([2]; PC3, 75 µg/mL) | viability at 100 µg/mL ([2]; PC3, 100 µg/mL) | Selectivity index (SI) PC3 [2] | Cytotoxicity (IC50) A375 [3] | IC50 [3] | viability at 5 µg/mL ([3]; A375, 5 µg/mL) | viability at 15 µg/mL ([3]; A375, 15 µg/mL) | viability at 25 µg/mL ([3]; A375, 25 µg/mL) | viability at 50 µg/mL ([3]; A375, 50 µg/mL) | viability at 75 µg/mL ([3]; A375, 75 µg/mL) | viability at 100 µg/mL ([3]; A375, 100 µg/mL) | Selectivity index (SI) A375 [3] | further results |
| --- | --- | --- | --- | --- | --- | --- | --- | --- | --- | --- | --- | --- | --- | --- | --- | --- | --- | --- | --- | --- | --- |
| O=C(O)CCC(/N=C/c1ccccc1OCc1cn(-c2ccccc2)nn1)C(=O)O (stereo in doubt) [Compound 2, (s,e)-2-((2-((1-phenyl-1H-1,2,3-triazol-yl)methoxy)benzylidene)amino)pentanedioic acid] | 146 to 148 °C | 85.3 ± 2.27 µg/mL | 60.6 ± 1.42 µg/mL | moderate activity | 90.3% | 81% | 71% | 56% | 36% | 28% | 1.41 | 36.12 ± 0.87 µg/mL | 36.1 to 40.4 µg/mL | 75.7% | 67% | 53.3% | 34% | 20.7% | 14% | 2.36 |  |
| O=Cc1ccccc1OCc1cn(-c2ccccc2)nn1 [Compound 1, 2-((1-phenyl-1H-1,2,3-triazol-4-yl)methoxy)benzaldehyde] | 147 to 149 °C | 76.9 ± 1.87 µg/mL | 75 ± 1.82 µg/mL |  | 95% | 89% | 80% | 63% | 47% | 38% | 1.02 | 40.37 ± 1.03 µg/mL | 36.1 to 40.4 µg/mL | 79% | 69% | 55% | 37% | 24% | 18% | 1.90 |  |
| O=C(O)C(Cc1ccccc1)/N=C/c1ccccc1OCc1cn(-c2ccccc2)nn1 (stereo not drawn) [Compound 6, (e)-3-phenyl-2-((2-((1-phenyl-1H-1,2,3-triazol-4-yl)methoxy)benzylidene)amino)propanoic acid] |  |  |  |  |  |  |  |  |  |  | 2.07 | 24.18 ± 0.57 µg/mL |  |  |  |  |  |  |  | 3.85 | Cytotoxicity (IC50) MRC5 [4]: 93.07 ± 2.42 µg/mL; Cell viability (%) ([2]; PC3, 5 µg/mL): 79%; Cell viability (%) ([2]; PC3, 15 µg/mL): 68%; Cell viability (%) ([2]; PC3, 25 µg/mL): 60%; Cell viability (%) ([2]; PC3, 50 µg/mL): 49%; Cell viability (%) ([2]; PC3, 75 µg/mL): 26%; Cell viability (%) ([2]; PC3, 100 µg/mL): 18%; Cytotoxicity (IC50) PC3 [2, 5]: 45.00 ± 1.12 µg/mL; Cell viability (%) ([3]; A375, 5 µg/mL): 68%; Cell viability (%) ([3]; A375, 15 µg/mL): 57.67%; Cell viability (%) ([3]; A375, 25 µg/mL): 45%; Cell viability (%) ([3]; A375, 50 µg/mL): 27%; Cell viability (%) ([3]; A375, 75 µg/mL): 16%; Cell viability (%) ([3]; A375, 100 µg/mL): 8% |

Second part, led by results:

| melting point | SMILES | IC50 at 24 h [1] | IC50 [2, 5] | Activity for the proliferation of the PC3 cancer cell lines (in words) [2] | viability at 5 µg/mL ([2]; PC3, 5 µg/mL) | viability at 15 µg/mL ([2]; PC3, 15 µg/mL) | viability at 25 µg/mL ([2]; PC3, 25 µg/mL) | viability at 50 µg/mL ([2]; PC3, 50 µg/mL) | viability at 75 µg/mL ([2]; PC3, 75 µg/mL) | viability at 100 µg/mL ([2]; PC3, 100 µg/mL) | Selectivity index (SI) PC3 [2] | Cytotoxicity (IC50) A375 [3] | IC50 [3] | viability at 5 µg/mL ([3]; A375, 5 µg/mL) | viability at 15 µg/mL ([3]; A375, 15 µg/mL) | viability at 25 µg/mL ([3]; A375, 25 µg/mL) | viability at 50 µg/mL ([3]; A375, 50 µg/mL) | viability at 75 µg/mL ([3]; A375, 75 µg/mL) | viability at 100 µg/mL ([3]; A375, 100 µg/mL) | Selectivity index (SI) A375 [3] | further results |
| --- | --- | --- | --- | --- | --- | --- | --- | --- | --- | --- | --- | --- | --- | --- | --- | --- | --- | --- | --- | --- | --- |
| 196 to 198 °C | O=C([O-])[C@H](Cc1c[nH]c2ccccc12)/N=C/c1ccccc1OCc1cn(-c2ccccc2)nn1.[Na+] [Compound 3, sodium (s,e)-3-(1H-indol-3-yl)-2-((2-((1-phenyl-1H-1,2,3-triazol-4-yl)methoxy)benzylidene)amino)propanoate] | 86.4 ± 2.64 µg/mL | 40.5 ± 1.06 µg/mL |  | 77% | 65.3% | 58% | 44% | 22% | 16% | 2.13 |  | 21.9 ± 0.52 µg/mL | 68% | 57.7% | 42% | 23% | 14% | 9% | 3.95 |  |
| 148 to 150 °C | O=C([O-])[C@H](Cc1ccc([O-])cc1)/N=C/c1ccccc1OCc1cn(-c2ccccc2)nn1.[Na+].[Na+] [Compound 4, sodium (s,e)-3-(4-oxidophenyl)-2-((2-((1-phenyl-1H-1,2,3-triazol-4-yl)methoxy)benzylidene)amino)propanoate] | 88.4 ± 2.38 µg/mL | 55.7 ± 1.28 µg/mL | moderate activity | 84% | 78% | 70% | 56% | 34% | 21.3% | 1.59 |  | 24.8 ± 0.61 µg/mL | 68.7% | 59.7% | 45% | 25% | 16% | 11% | 3.56 |  |
